The values that follow come from patent US12122973B2, “Guanidinium-based ionic liquid and its use as a lubricant additive” (TOTALENERGIES ONETECH, priority 2020, dated 2024).

Data set [1] in a line: Base number (BN/TBN) according to ASTM D2896. Format: physicochemical. As to conditions: neat ionic liquid. The method, then: An oil's neutralization capacity is measured by its BN or Base Number, characterized by its basicity. It is measured according to standard ASTM D-2896 and is expressed as an equivalent in milligrams of potash per gram of oil (also called “mg of KOH/g” or “BN point”). The BN is a standard criterion making it possible to adjust the basicity of the cylinder oils to the sulphur content of the fuel oil used, in order to be able to neutralize all of the sulphur contained in the fuel, and capable of being converted to sulphuric acid by combustion and hydrolysis.
The base number of IL1 is 61 mg KOH/g according to ASTM D2896.

Data set [2] in a line: Solubility test of the ionic liquid in base oil. Conditions: lubricant composition of IL1 and base oil; room temperature (15-25° C.) and 60° C.; limpid after three months. Format: physicochemical. The text has this: In order to be used in a lubricant composition, the guanidinium-based ionic liquid must preferably be soluble in the base oil which represents the major part of the lubricant composition. A compound is oil-soluble when it can be solubilized at a concentration of at least 0.01% by weight with regards to the weight of a base oil, at room temperature. In order to check that the guanidinium-based ionic liquid is oil-soluble, a test is disclosed in the experimental part.
In order to check that the guanidinium-based ionic liquid is oil-soluble, the following test has been achieved:
100 mL of the lubricant composition comprising IL1 and the base oil is introduced into two reaction tubes. One of the tubes is maintained at room temperature (between 15 and 25° C.) and the other reaction tube is placed in an oven at 60° C.
After three months, the lubricant composition of both reaction tubes was limpid.

On to “1,1,3,3-tetramethylguanidinium tert-Octylphenylpolyethoxyethanolate [IL1]”, for which the base number in data set [1] was 61 mg KOH/g. Further, the “solubility in the oil” value in data set [2] was “soluble in the oil”.
